According to article PMC11528320, “S-MGBs bearing amidine tail groups are potent, selective antiplasmodial agents” (RSC Medicinal Chemistry, 2024):
Like-named read-outs stand apart in the source and are kept apart here.

Tests used:
[1] = system: P. falciparum 3D7; assay: in vitro asexual P. falciparum imaging assay, 3D7 strain; format: cell-based
Experimental: (§1) The antiplasmodial in vitro assay was performed as previously described.[13] In brief, P. falciparum parasites (3D7 and Dd2 strains) were grown in RPMI-1640 medium supplemented with 25 mM HEPES, 5% AB human male serum, 2.5 mg mL^−1 Albumax II, and 0.37 mM hypoxanthine. Parasites were subjected to two rounds of sorbitol synchronization prior to compound addition. Ring stage parasites were incubated with compounds in 384-well imaging CellCarrier microplates, for 72 h at 37 °C, 90% N2, 5% CO2, 5% O2, parasites stained with 4′,6-diamidino-2-phenylindole (DAPI) and imaged using an Opera QEHS microplate confocal imaging system (PerkinElmer). Images were analysed as previously described,[13] and raw data normalized using the in-plate positive and negative controls to obtain percent inhibition, used to calculate IC50 values, through a four-parameter logistic curve fitting in Prism (GraphPad).

[2] = system: P. falciparum Dd2; assay: in vitro asexual P. falciparum imaging assay, Dd2 strain; format: cell-based
Experimental: as §1

[3] = system: HEK293 cells; assay: HEK293 cell viability (resazurin) assay; format: cell-based, Human; conditions: for IC50 / inhibition at 80 µM: Homo sapiens; for IC50: HEK293, 72 h; for SI, HEK293/3D7: ratio of HEK293 IC50 (or relative IC50) to P. falciparum 3D7 IC50; for inhibition at 80 µM: HEK293, 72 h
Experimental: Cell viability was assessed using a minor modification of the protocol previously described.[14] Human embryonic kidney cells (HEK293) were maintained in Dulbecco's modified Eagle's medium supplemented with 10% foetal bovine serum.

[4] = ratio of Dd2 IC50 to 3D7 IC50 (cross-resistance)
[5] = Plasmodium falciparum, 3D7, 72 h; read-out: 3D7 IC50
[6] = Plasmodium falciparum, DD2, 72 h; read-out: Dd2 IC50

SMILES	IC50 ([1]; Plasmodium falciparum, 3D7, 72 h, read-out: 3D7 IC50) [nM]	IC50 ([2]; Plasmodium falciparum, DD2, 72 h, read-out: Dd2 IC50) [nM]	Dd2/3D7 [2, 4]	IC50 [1, 5] [nM]	IC50 [2, 6] [nM]	IC50 [3] [nM]	SI, HEK293/3D7 [3]	inhibition at 80 µM [3] [%]
CCN(CC)CCCC(C)Nc1ccnc2cc(Cl)ccc12 (centres unmarked) [Chloroquine, chloroquine, reference compound]	31.3 ± 9.7	225 ± 84.4	7.2	–	–	–	–	–
COc1ccc(C[C@H](N)C(=O)N[C@H]2[C@@H](O)[C@H](n3cnc4c(N(C)C)ncnc43)O[C@@H]2CO)cc1 [Puromycin, puromycin, reference compound]	–	–	1.2	41.9 ± 7.2	49.3 ± 3.5	378	9	–
CCc1nc(N)nc(N)c1-c1ccc(Cl)cc1 [Pyrimeth-amine, pyrimethamine, reference compound]	–	–	–	2.69 ± 0.26	> 80000	3980	1478	–
COc1ccc2nc3cc(Cl)ccc3c(Nc3cc(CN4CCCC4)c(O)c(CN4CCCC4)c3)c2n1 [Pyronaridine, pyronaridine, reference compound]	–	–	1.3	26.7 ± 3.8	33.3 ± 6.1	3050	114	–
COc1cccc(/C=C/c2ccc(C(=O)Nc3cc(C(=O)Nc4cc(C(=O)NCCCN(C)C)n(C)c4)n(C)c3)cc2)c1.O=C(O)C(F)(F)F [S-MGB-131]	–	–	1.3	200	254.4 ± 0.2	–	–	101
Cn1cc(NC(=O)c2cc(NC(=O)c3ccc(/C=C/c4ccc(C(F)(F)F)cc4)cc3)cn2C)cc1C(=O)NCCN1CCOCC1.O=C(O)C(F)(F)F [S-MGB-176]	–	–	1.6	756 ± 0.8	1236 ± 3	–	>53	80
Cn1cc(NC(=O)c2cc(NC(=O)c3ccc(/C=C/c4ccc5nsnc5c4)cc3)cn2C)cc1C(=O)NCCN1CCOCC1.O=C(O)C(F)(F)F [S-MGB-188]	–	–	1.1	57 ± 0.1	61.9 ± 0.3	–	>193	86
CC(C)n1cc(NC(=O)c2cc(NC(=O)c3ccc(/C=C/c4cnc5ccccc5c4)cc3)cn2C)cc1C(=O)NCCN1CCOCC1.O=C(O)C(F)(F)F [S-MGB-192]	–	–	1.1	96.3 ± 12.8	108 ± 20.6	3190	33	–
CN(C)c1ccc(/C=C/c2ccc(C(=O)Nc3cc(C(=O)Nc4cc(C(=O)NCCN5CCOCC5)n(C)c4)n(C)c3)cn2)cc1.O=C(O)C(F)(F)F [S-MGB-245]	–	–	1.1	161 ± 0.5	169.1 ± 0.5	2750	17	–
CN(C)CCNC(=O)c1cc(NC(=O)c2cc(NC(=O)c3ccc(/C=C/c4ccc(N(C)C)cc4)nc3)cn2C)cn1C.O=C(O)C(F)(F)F [S-MGB-246]	–	–	1.2	43 ± 0.6	53 ± 0.4	3860	90	–
COc1cccc(/C=C/c2ccc(C(=O)Nc3cc(C(=O)Nc4cc(C(=O)NCCN(C)C)n(C)c4)n(C)c3)cc2)c1.O=C(O)C(F)(F)F [S-MGB-247]	–	–	1.3	108.9 ± 0.2	138.6 ± 0.2	–	>183.7	100
CN(C)CCNC(=O)c1cc(NC(=O)c2cc(NC(=O)c3ccc(/C=C/c4cnc5ccccc5c4)cc3)cn2C)cn1C.O=C(O)C(F)(F)F [S-MGB-248]	–	–	1.7	33.4 ± 0.7	57 ± 0.6	3130	94	–
CC(C)CCn1cc(NC(=O)c2cc(NC(=O)c3cc(NC(=N)c4cc5ccccc5cn4)cn3C)cn2C)cc1C(=O)NCCCN(C)C.O=C(O)C(F)(F)F [S-MGB-330]	–	–	1.6	407.7 ± 0.1	636.1 ± 0.4	–	>98.1	100
CN(C)CCCNC(=O)c1cc(NC(=O)c2cc(NC(=O)c3cc(NC(=N)c4cc5ccccc5cn4)cn3C)cn2C)cn1C.O=C(O)C(F)(F)F [S-MGB-337]	–	–	1.1	95.6	101.8 ± 0.2	–	>219.7	101
Cn1cc(NC(=O)c2cc(NC(=O)c3ccc(/C=C/C(=O)Nc4ccccc4O)cc3)cn2C)cc1C(=O)NCCC(=N)N.O=C(O)C(F)(F)F [S-MGB-361]	–	–	0.9	633.9 ± 0.2	558.5 ± 0.4	–	>63.1	90
COc1ccc(/C=C/c2ccc(C(=O)Nc3cc(C(=O)Nc4cc(C(=O)NCCC(=N)N)n(C)c4)n(C)c3)cc2)cc1.O=C(O)C(F)(F)F [S-MGB-367]	–	–	–	367.3 ± 0.9	620.3 ± 0.3	–	>108.9	81
CC(C)CCc1sc(NC(=O)c2cc(NC(=O)c3ccc(/C=C/c4ccc(F)cc4)nc3)cn2C)nc1C(=O)NCCCN(C)C.O=C(O)C(F)(F)F [S-MGB-376]	–	–	0.9	147.2 ± 1.4	135 ± 1.6	9100	62	–
CC(C)CCc1sc(NC(=O)c2cc(NC(=O)c3ccc(/C=C/c4ccc(C(F)(F)F)cc4)cc3)cn2C)nc1C(=O)NCCCN(C)C.O=C(O)C(F)(F)F [S-MGB-377]	–	–	1.4	73.1 ± 4.7	105 ± 6.3	4300	59	–
CC(C)CCc1sc(NC(=O)c2cc(NC(=O)c3ccc(/C=C/c4cccc(F)c4)cc3)cn2C)nc1C(=O)NCCCN(C)C.O=C(O)C(F)(F)F [S-MGB-378]	–	–	1.1	150 ± 4	171 ± 2.9	10500	70	–
CC(C)CCc1sc(NC(=O)c2cc(NC(=O)c3ccc(/C=C/c4ccc(F)cc4)cc3)cn2C)nc1C(=O)NCCCN(C)C.O=C(O)C(F)(F)F [S-MGB-379]	–	–	1.0	150 ± 2.7	148 ± 5.4	8340	56	–
CC(C)CCc1sc(NC(=O)c2cc(NC(=O)c3ccc(/C=C/c4cccc(C(F)(F)F)c4)nc3)cn2C)nc1C(=O)NCCCN(C)C.O=C(O)C(F)(F)F [S-MGB-380]	–	–	1.1	74.7 ± 2.8	83.9 ± 3.6	8200	110	–
CC(C)CCc1sc(NC(=O)c2cc(NC(=O)c3cc(NC(=O)c4cccc(F)c4)cn3C)cn2C)nc1C(=O)NCCCN(C)C.O=C(O)C(F)(F)F [S-MGB-386]	–	–	0.8	254.9 ± 1.2	207.1 ± 1.3	–	>157	101
Cn1cc(NC(=O)c2cc(NC(=O)c3ccc(NC(=O)c4ccc(F)cc4)cc3)cn2C)cc1C(=O)NCCC(=N)N.O=C(O)C(F)(F)F [S-MGB-388]	–	–	1.3	181 ± 2.2	228.6 ± 2	–	>192.9	93
Cn1cc(NC(=O)c2cc(NC(=O)c3ccc(NC(=O)c4cccc(F)c4)cc3)cn2C)cc1C(=O)NCCC(=N)N.O=C(O)C(F)(F)F [S-MGB-389]	–	–	0.6	857.5 ± 1.3	488 ± 1.8	–	>46.6	92
Cn1cc(NC(=O)c2cc(NC(=O)c3ccc(/C=C/c4ccc(F)cc4)cc3)cn2C)cc1C(=O)NCCC(=N)N.O=C(O)C(F)(F)F [S-MGB-390]	–	–	1.2	532.6 ± 0.9	640.2 ± 0.6	–	>75.1	78
Cn1cc(NC(=O)c2cc(NC(=O)c3ccc(/C=C/c4cccc(F)c4)cc3)cn2C)cc1C(=O)NCCC(=N)N.O=C(O)C(F)(F)F [S-MGB-391]	–	–	1.9	671.3 ± 1.4	1295.5 ± 0.7	–	>59.6	100
